Laboratory results from patent US20200308548A1, “Amplifying Beta Cell Differentiation with Small Molecules BET (Bromodomain And Extraterminal Family Of Bromodomain-Containing Proteins) Inhibitors” (Centre National de la Recherche Scientifique (CNRS), priority 2016, published 2020).

Tests used:
[1] = tested on: mouse embryonic pancreatic buds; experiment: NGN3 immunohistochemistry and count of positive nuclei in cultured mouse pancreatic buds; type: cell-based; details: five days culture; 0.5 μM IBET-151 or 0.1 μM (+)-JQ1; vs DMSO
Protocol: (§1) Mouse pancreatic buds were dissected from E11.5 C57Bl6/J embryos and placed at the air/medium interface on 0.45μm filters in culture dishes containing RPMI medium supplemented with 10% fetal calf serum, 1% penicillin-streptomycin, 1% non-essential amino acids and 10mM HEPES. Pancreatic buds were cultured at 37° C. with 5% CO2.
(§2) IBET-151 was obtained from Sigma-Aldrich and (+)/-JQ1 from Abcam. Stock solutions were prepared in DMSO. Inhibitors or DMSO (0.1% final concentration) were added to the culture medium which was changed daily.
Pancreatic buds were fixed in 3.7% formaldehyde, pre-embedded in agarose gel (4% of type VII low gelling temperature agarose (Sigma-Aldrich)) and embedded in paraffin. Sections (4 μm thick) were collected and processed for 3,3' diaminobenzidine immunohistological staining of NGN3, as previously described (Attali et al., 2007).
Photographs representative of a whole pancreas were taken using a transmitted light microscope (Leitz DMRB, Leica) and digitized using a Hammamatsu cooled 3CCCD camera. Total number of NGN3 positive nuclei per rudiment were then manually counted. Values represent the average of three experiments with standard deviation error bars. Statistical analysis was performed using unpaired Student t test.

[2] = tested on: genetically modified hESC line that express GFP under the control of the Neurogenin 3 promoter; experiment: GFP reporter under Neurogenin 3 promoter in differentiated hESC line; type: cell-based, human; details: three days; 400 nM (+)-JQ1 or 2000 nM IBET-151; vs DMSO
Protocol: (§3) Human induced pluripotent stem cells (iPSC) and human embryonic stem cells (ESC) were cultured on standard tissue culture plastic ware coated with hESC-qualified matrigel in mTeSR1™medium. Cells were passaged every three to four days as single cells using TrypLe Select. Rock inhibitor (5 μM) was included at the first day of passaging. Three different iPSC lines derived from a total of two individual donors and one ESC line were applied.
(§4) For differentiation, cells were seeded as single cells in mTeSR1 with 5 μM Rock inhibitor into tissue culture plates (Corning CellBind) at densities ranging between 300-400.000 cells/cm^2. Cells were cultured for 24 h at 37° C., 5% CO2. Following incubation, medium was aspirated and the cells were washed once in PBS before adding the differentiation medium. Differentiation was carried out essentially as described in Rezania et al. (Rezania et al., 2014b). The differentiation protocol is outlined in FIG. 2A. […]
(§5) Differentiation efficiency was analyzed by flow cytometry essentially as described in van de Bunt et al., 2016. […] Unconjugated antibodies were detected with fluorophore conjugated secondary antibodies.

[3] = tested on: hiPSC-derived endocrine progenitor cells; experiment: Percentage of Neurogenin 3 protein expressing cells by flow cytometry; type: cell-based, human; details: three days; 400 nM (+)-JQ1 or 2000 nM IBET-151; three biological experiments
Protocol: as §3, §4, §5

[4] = tested on: mouse embryonic pancreatic buds; experiment: RT-qPCR of Ngn3, Ins1, Ins2 and MafA in cultured mouse pancreatic buds; type: cell-based; details: for Ngn3 relative mRNA levels: 0.5 μM IBET-151 or 0.1 μM (+)-JQ1, vs DMSO
Protocol: as §1, §2
Total RNA from three or more pancreatic buds was extracted using Qiagen RNA extraction microkit and 250ng were reverse transcribed using maxima first strand cDNA synthesis kit from Thermo Fisher. Real-time PCR analysis of Ngn3, MafA and Cyclophylin A were performed in 1× Sybr Green Powermix in QuantStudio 3 Applied Biosystem system. Real-time PCR analysis of Ins1 and Ins2 were performed in 1× TaqMan Gene Expression Mastermix in a QuantStudio 3 Applied Biosystem system. Relative expression of Ngn3, MafA and Cyclophylin A were calculated using the comparative method of relative quantification (2^−ΔΔCT) normalized to cyclophilin A expression. Values represent the average of three experiments with standard deviation error bars. Statistical analysis was performed using unpaired Student t test.

[5] = tested on: hiPSC-derived pancreatic progenitors; experiment: Viability and cell number by Nucleocounter after BET inhibitor treatment; type: cell-based, human; details: three day treatment, all tested concentrations, vs concentration matched DMSO
Protocol: as §3, §4
Viability of the cells and total number of cells was analyzed using a Nucleocounter NC3000 Cell analyzer (Chemometec).

[6] = tested on: hiPSC-derived endocrine progenitor cells; experiment: Neurogenin 3 protein by immunofluorescence microscopy; type: cell-based, human; details: three days; 500 nM (+)-JQ1 or 2000 nM IBET-151; vs DMSO
Protocol: as §3, §4

[7] = tested on: hiPSC-derived pancreatic progenitors; experiment: Neurogenin 3 mRNA by qPCR in hiPSC-derived pancreatic progenitors differentiated towards endocrine lineage; type: cell-based, human; details: three days, six different concentrations
Protocol: as §3
as §4, with “medium.” for “medium. Differentiation was carried out essentially as described in Rezania et al. (Rezania et al., 2014b). The differentiation protocol is outlined in FIG. 2A.”
RNA was isolated from cells using NucleoSpin RNA/protein isolation kit (Macherey-Nagel). RNA was quantified using a nanodrop and […] RNA pr. sample was converted to cDNA using iScript reverse transcription kit (Bio-Rad). Gene expression was evaluated using Tagman gene expression assay for Neurogenin 3(Hs01875204, Applied Biosystems).
Neurogenin 3 transcripts were normalized to the average expression of two housekeeping genes (ACTB, Hs01060665_g1 and HPRT1, Hs99999909_m1, both from Applied Biosystems). Relative expression was calculated using the ΔΔCt method (FIGS. 2B and 2C).

[8] = 5 days with inhibitor (0.5 μM IBET-151 or 0.1 μM (+)-JQ1), then 9 additional days without inhibitor

In the case of COc1cc2c(cc1-c1c(C)noc1C)ncc1[nH]c(=O)n([C@H](C)c3ccccn3)c12 [IBET-151], the “number of NGN3 positive nuclei” value [1] is reported as “increased”, the “cells expressing GFP compared to the control” value [2] is reported as “more cells expressing GFP” and the “number of cells expressing Neurogenin 3 protein relative to control treated cells” value [3] is reported as “approximately 1.6 fold”. It also gave an Ins1 expression increase [4, 8] of 3 fold, an Ins2 expression increase [4, 8] of 3 fold and a MafA expression increase [4, 8] of 10 folds. The “Ngn3 relative mRNA levels” value ([4]; after 3 days of treatment) was “strongly increased”, the “Ngn3 relative mRNA levels” value ([4]; after 7 days) was “remain increased” and the “cell number compared to controls” value [5] was “No obvious difference”. For the same compound, the “viability compared to controls” value [5] was “No obvious difference”, the “number of cells positive for Neurogenin 3 protein” value [6] was “clear increase” and the “staining intensity of Neurogenin 3 in individual cells” value [6] was “stronger”. The “Neurogenin 3 mRNA expression” value [7] was “dose-dependent increase” and the “concentration at which maximum Neurogenin 3 mRNA expression is achieved” value [7] was 2000 nM.
